# Data taken from patent publication US12465618B2, “Compositions and methods for degenerative disc regeneration” (University Health Network, priority 2015, dated 2025).
# Assays:
# Type in all cases: cell-based
# [1] = system: rat degenerative disc NP cells; experiment: Caspase 3/7 Lumi-Glo assay, cytokine induced; conditions: 48 hrs
# Method: (§1) Apoptosis induced in NP cells (rat and human) as result of treatment with pro-inflammatory cytokines (IL-1β and TNFα) was determined using Caspase 3/7 and Caspase 9 specific Lumi-Glo assays (Promega, Madison). Briefly, NP cells were plated and treated with either IL-1β alone or in combination with TNFα only or in presence of CTGF and TGFβ1 for 48 hrs, followed by addition of specific reagents for Caspase 3/7 and Caspase 9 as per the manufacturer's instructions. Cells were incubated for another 4 hrs at 37° C., and plates were read in a multi-well luminescence plate reader.
# [2] = system: human degenerative disc NP cells; experiment: Caspase 3/7 Lumi-Glo assay, cytokine induced; conditions: 48 hrs
# Method: as §1
# [3] = system: bovine degenerative disc NP cells; experiment: MTT cell viability assay; conditions: CTGF 100 ng/ml, TGFβ1 10 ng/ml, 48 hrs-72 hrs
# Method: (§2) Nucleus pulposus cells (rat, bovine and human) were plated in 96-well flat bottom plates in order to evaluate the effect of treatment with growth factors in cell viability and proliferation assays. Rat NP cells were treated with CTGF, WISP-2 and TGFβ1 in a dose (1 ng/mL-100 ng/mL) and time dependent manner (24 hrs-96 hrs) to determine the optimum dose and time for the assessment of these growth factors on viability. Cell viability was determined using 3-(4,5-dimethylthiazol-2-yl)-2,5-diphenyltetrazolium bromide (MTT, Sigma-Aldrich, USA) as previously described^44. A BrdU-ELISA (colorimetric) assay (Cat #ab126556, Abcam) was used for determining the effect of treatment with CTGF or TGFβ1 on human and rat NP cells (healthy/injured) following the manufacturer's instructions. Briefly, NP cells were treated with CTGF or TGFβ1 alone or in combination for 48 hrs following addition of BrdU reagent O/N in each well. Incorporated BrdU in DNA of proliferating cells was determined using anti-BrdU antibody and quantified by ELISA as per the manufacturer's instructions.
# [4] = system: rat-tail disc NP cells (healthy/injured); experiment: MTT cell viability assay; conditions: CTGF 100 ng/ml, TGFβ1 10 ng/ml, 48 hrs-72 hrs
# Method: as §2
# [5] = system: human degenerative disc NP cells; experiment: Western blotting of human degenerative disc NP cells; conditions: within 24 hrs
# Method: (§3) After euthanasia, healthy rat lumbar/caudal spine IVDs, injured tail discs and bovine caudal IVD NPs were removed aseptically and the nucleus pulposus (NP) was removed separately and enzymatically digested according to methods established by the present inventors^16. Similarly, human degenerative disc NPs were enzymatically digested using Pronase (0.4%, 1 hr at 37° C.) followed by Collagenase II treatment (0.015%, O/N, 37° C.). The following day, the cells were filtered with a 70p cell strainer and cultured within a hypoxic incubator (NuAire, MN, USA) in 3.5% O2, 5% CO2, in Advanced Dulbecco's modified Eagle's medium (ADMEM) supplemented with 8% fetal bovine serum (FBS) and penicillin and streptomycin (100 U/mL). For treatments, the cells were either cultured in serum free ADMEM (no treatment controls) or treated with interleukin-1β (IL-1β, 10 ng/mL), tumor necrosis factor-alpha (TNFα, 50 ng/mL), connective tissue growth factor (CTGF, 10-100 ng/mL), Wnt-inducible soluble protein 2 (WISP2, 10-100 ng/mL) or transforming growth factor beta 1 (TGFβ1, 5-20 ng/mL) for various time points under hypoxic conditions.
# (§4) Equal amounts of whole cell or tissue lysates prepared using RIPA lysis buffer were subjected to Western blotting as described earlier^18,19. Total lysates (30 μg) were resolved on 10% sodium dodecyl sulphate-polyacrylamide gels (SDS-PAGE) under reducing conditions and then proteins were electro-transferred onto polyvinyledendifluoride (PVDF) membranes (BioRad, CA). After blocking with 5% non-fat powdered milk in Tris-buffered saline (TBS, 0.1 M, pH=7.4), blots were incubated with rabbit or goat polyclonal/mouse monoclonal primary antibodies at 4° C. overnight. […] Blots were washed three times with TTBS for 15 minutes and protein bands were detected by the enhanced chemiluminescence method (BioRad, CA) on Kodak Hyperfilm.
# rat NP cells = experiment: Western blotting of rat NP cells treated with IL-1β/TNFα with or without inhibitors or growth factors; conditions: rat-tail NP cells treated with IL-1β and TNFα, Western blot, FIG. 5g-5h
# Method: as §3, §4
substance,measurement,setting,value
"TGFβ1: Human recombinant transforming growth factor beta 1, Peprotech cat #100-21, identified in NCCM",cytokine (IL-1β and TNFα)-induced caspase 3/7 activity,[1],significant decrease
same,cytokine (IL-1β and TNFα)-induced caspase 3/7 activity,[2],significant decrease
same,cell viability (MTT),[3],increased the viability
same,cell viability (MTT),[4],increased the viability
same,collagen 2 expression (Western blotting),[5],increase
same,"expression of MMP-3, MMP-13 and Cox2 proteins in presence of growth factor",rat NP cells,reduced expression
